The source of these data is paper PMC9606921, “Phytochemical Investigation and Biological Studies on Selected Searsia Species” (Plants, 2022).

Assay [1] can be described thus: Ferric ion reducing antioxidant power (FRAP) assay. The following applies: means ± SDs; ascorbic acid equivalents; read at 593 nm.
Method: The FRAP values were generated by comparing the absorbance changes in the test mixtures with those obtained from increasing concentrations of Fe^3+ and were expressed as µM AAE/g of the samples (Figure 3).
Preparation of the FRAP reagent in a 50 mL conical flask was composed of 30 mL Acetate buffer (300 mM, pH 3.6; 1.627 g Sodium acetate + 16 mL Glacial acetic acid and made up to 1 L with distilled water) + 3 mL TPTZ 10 mM solution (0.0093 g TPTZ and 3 mL of 40 mM HCl in 15 mL flask) + 3 mL FeCl3 solution (0.054 g FeCl3.6H2O and 10 mL distilled water) and 6.6 mL of distilled water. A control solution was prepared by dissolving 0.00352 g of Ascorbic acid in 50 mL, diluted to the mark with distilled water. A standard curve was prepared as per the method described by Benzie and Strain, 1996. L-Ascorbic acid (Sigma Aldrich, Cape Town, South Africa) was used as a standard, with concentrations varying between 0 and 1000 µM. Dilutions were made for the extracts that were highly concentrated, and dilution factors were noted and considered in calculations for the relevant extracts. In a 96-well clear microplate, 10 µL of the stock solutions of the extracts (hexane, dichloromethane, ethyl acetate, methanol, and butanol) of three plants were mixed with a 300 µL FRAP reagent. The plate was read at a wavelength of 593 nm in a multiplate reader. […]
For assay [2], the target named is T1, α-glucosidase (Saccharomyces cerevisiae) (Saccharomyces cerevisiae, UniProt P53341).
T1 construct: purchased Sigma-Aldrich, South Africa
Kind of assay: Alpha glucosidase inhibitory activity. The class given is biochemical. The following applies: for IC50: IC50 on alpha glucosidase, concentrations 125.0-1.95 µg/mL, means ± SDs; for activity in screening against alpha glucosidase: isolated compounds tested at 125.0 µg/mL. Here is the method:
(§1) The extracts of Searsia species were screened to determine their inhibition activities with respect to enzymes relevant to the management of diabetes. The extracts were tested at 2.0 mg/mL.
(§2) The isolated compounds from the three plants were tested against alpha glucosidase and alpha amylase at 125.0 µg/mL to determine their inhibitory activities.
(§3) Standards (purity > 99.0%) for antioxidants, Trolox (6-hydroxyl-2,5,7,8-tetramethylchroman-2-carboxylic acid; Saarchem, Mumbai, India), and other reagents, including ABTS (2,2′-azino-bis (3-ethylbenzo thiazoline-6-sulfonic acid) diammonium salt (Sigma), potassium-peroxodisulphate (Merck), Ethanol (Saarchem), fluorescein sodium salt (Sigma), AAPH (2,2′-azobis (2-methylpropionamidine) dihydrochloride (Aldrich), Sodium dihydrogen orthophosphate dihydrate ([…], Merck), PCA (perchloric acid, Saarchem), TPTZ (2,4,6-tri[2-pyridyl]-s-triazine), iron (III) chloride hexahydrate, and copper sulphate, were purchased from Sigma-Aldrich, Inc. (St. Louis, MO, USA). L-Ascorbic acid was procured from Sigma Aldrich, Cape Town, South Africa. Antioxidant assays, including FRAP and TEAC assays, were performed using a Multiskan spectrum plate reader, while an automated ORAC assay was performed with a Floroskan spectrum plate reader. For the enzyme inhibition studies, α-glucosidase (Saccharomyces cerevisiae), α-amylase ([…]) and 3, 5, di-nitro salicylic acid (DNS), p-nitro-phenyl-α-D-glucopyranoside (p-NPG), sodium carbonate (Na2CO3), soluble starch, sodium dihydrogen phosphate, and disodium hydrogen phosphate were purchased from Sigma-Aldrich, South Africa.
The alpha glucosidase inhibitory activities of the extracts were determined according to the standard method, with minor modifications. In a 96-well plate, a reaction mixture containing 50 μL phosphate buffer (100 mM, pH = 6.8), 10 μL alpha glucosidase (1 U/mL), and 20 μL of extract at 2.0 mg/mL was pre-incubated at 37 °C for 15 min. Then, 20 μL P-NPG (5 mM) was added as a substrate and incubated further at 37 °C for 20 min. The reaction was stopped by adding 50 μL Na2CO3 (0.1 M). The absorbance of the released p-nitrophenol was measured at 405 nm using a Multiplate Reader. The results were reported as half-maximal inhibitory (IC50) concentrations in μM. […] Each extract was tested in triplicate. (1) Inhibitory activity (%)=1 − As/Ac×100 where As is the absorbance in the presence of the test substance and Ac is the absorbance of the control.

Assay [3] addresses T2, α-amylase (procaine pancreas) (Sus scrofa, UniProt P00690).
T2 construct: purchased Sigma-Aldrich, South Africa; host or cells: pancreas
T2 sequence (P00690 16-511): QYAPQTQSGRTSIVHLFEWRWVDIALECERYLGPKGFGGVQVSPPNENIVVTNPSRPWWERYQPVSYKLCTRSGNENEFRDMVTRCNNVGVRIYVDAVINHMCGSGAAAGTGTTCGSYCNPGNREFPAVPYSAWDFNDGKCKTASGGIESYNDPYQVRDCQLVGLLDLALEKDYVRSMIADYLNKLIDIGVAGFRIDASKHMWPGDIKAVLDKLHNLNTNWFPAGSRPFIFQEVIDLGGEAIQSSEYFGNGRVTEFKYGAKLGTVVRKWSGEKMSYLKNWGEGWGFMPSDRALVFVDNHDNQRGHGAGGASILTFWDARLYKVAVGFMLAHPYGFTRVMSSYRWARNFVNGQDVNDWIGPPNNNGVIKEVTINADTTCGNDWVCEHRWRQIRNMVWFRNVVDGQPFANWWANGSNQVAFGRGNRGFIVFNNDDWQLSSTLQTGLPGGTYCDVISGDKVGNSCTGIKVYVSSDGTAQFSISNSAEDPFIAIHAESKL
Briefly: Alpha amylase inhibitory assay. The format is biochemical. The following applies: for IC50: concentrations 125.0-1.95 µg/mL, means ± SDs; for activity in screening against alpha amylase: isolated compounds tested at 125.0 µg/mL. On the procedure:
as §1, §2, §3
The alpha amylase inhibitory assays of the extracts were carried out according to the standard method, with minor modifications. In a 96-well plate, the reaction mixture, containing 50 μL phosphate buffer (100 mM, pH = 6.8), 10 μL alpha amylase (2 U/mL), and 20 μL of plant extracts at 2.0 mg/mL, was preincubated at 37°C for 20 min. Then, 20 μL of 1% soluble starch (100 mM phosphate buffer pH 6.8) was added as a substrate and incubated further at 37 °C for 30 min; 100 μL of the DNS colour reagent was then added and boiled for 10 min. The absorbance of the resulting mixture was measured at 540 nm using a multiplate reader. […] The extracts or isolated compounds were measured in triplicate. The results were reported as half-maximal inhibitory (IC50) concentrations in μM. The results for both alpha amylase and alpha glucosidase were calculated using equation 1.

Assay [4] can be described thus: Oxygen radical absorbance capacity (ORAC) assay. The settings on record: means ± SDs; Trolox equivalents per g of plant extract.
Method: ORAC was determined according to a previously described method [46], with some modifications [47]. Fluorescein was used as the fluorescent probe. The loss of fluorescence of fluorescein was an indication of the extent of oxidation through reaction with peroxyl or hydroxyl radicals. The protective effect of an antioxidant was measured by assessing the fluorescence area under the curve plot relative to that of a blank in which no antioxidant was present. The ORAC value was calculated by dividing the area under the sample curve by the area under the Trolox curve, with both areas being corrected by subtracting the area under the blank curve.
Assay [5] can be described thus: Trolox equivalent antioxidant capacity (ABTS/TEAC) assay. The settings on record: means ± SDs; ABTS, 734 nm, 30 min.
Method: The antioxidant power of the extracts was examined using the ABTS radical decolorization assay, which measures the relative antioxidant ability to scavenge the radical ABTS^+ (2.2′-azinobis (3-ethylbenzothiazoline-6-sulfonic acid)), a blue-green chromophore with maximum absorption at 734 nm that decreases in its intensity in the presence of antioxidants.
The ABTS mix solution was diluted with ethanol to read a start-up absorbance of approximately 2.0 (±0.1). The test extracts were prepared by dissolving 1 mg of an extract in 1 mL of methanol, allowed to react with 300 µL ABTS solution in the dark at room temperature for 30 min. The absorbance was measured at 734 nm at 25 °C in a multiplate reader. The results were expressed as µM Trolox equivalents per milligram dry weight (µM TE/g) of the test samples.

Where “and” joins values, the source holds several entries; their conditions need not be identical. Equal values may be shown once.

T1 sequence (P53341 whole entry): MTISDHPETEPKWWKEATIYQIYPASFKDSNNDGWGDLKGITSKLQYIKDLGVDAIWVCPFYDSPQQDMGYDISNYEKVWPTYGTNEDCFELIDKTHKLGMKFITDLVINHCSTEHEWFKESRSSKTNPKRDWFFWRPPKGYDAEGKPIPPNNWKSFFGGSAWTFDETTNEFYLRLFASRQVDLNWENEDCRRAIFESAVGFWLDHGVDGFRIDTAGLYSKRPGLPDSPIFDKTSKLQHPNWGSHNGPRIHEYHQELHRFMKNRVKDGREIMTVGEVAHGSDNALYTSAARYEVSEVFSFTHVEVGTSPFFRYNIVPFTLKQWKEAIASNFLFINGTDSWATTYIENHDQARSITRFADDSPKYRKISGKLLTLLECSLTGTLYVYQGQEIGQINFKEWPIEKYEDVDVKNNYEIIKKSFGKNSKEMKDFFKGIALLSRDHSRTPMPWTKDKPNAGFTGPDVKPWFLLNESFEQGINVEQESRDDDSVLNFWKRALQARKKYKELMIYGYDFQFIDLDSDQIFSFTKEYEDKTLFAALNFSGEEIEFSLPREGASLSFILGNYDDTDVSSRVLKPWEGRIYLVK

On to `O=C1O[C@H]([C@@H](O)CO)C(O)=C1O` [Ascorbic acid, L-Ascorbic acid], for which the FRAP in assay [1] was determined as 390.12 ± 09.12 µM AAE/g.
One may read the IC50 as the concentration that inhibits the measured activity by half. Lower therefore signals higher potency. For `CC1(C)C=C2[C@H]3CC[C@@H]4[C@@]5(C)CCC(=O)C(C)(C)[C@@H]5CC[C@@]4(C)[C@]3(C)CC[C@@]2(C(=O)O)CC1` [Compound C1, moronic acid], in assay [2], the IC50 was 23.4 µM and 23.2 µM; the “activity in screening against alpha glucosidase” value is given as “showed activity”. In assay [3], the midpoint of inhibition, the IC50, lay at 44.2 µM and the “activity in screening against alpha amylase” value is listed as “showed activity”.
For `O=c1cc(-c2ccc(O)c(-c3c(O)cc(O)c4c(=O)cc(-c5ccc(O)cc5)oc34)c2)oc2cc(O)cc(O)c12` [Compound C7, amentoflavone], in assay [2], the midpoint of inhibition, the IC50, lay at 10.3 µM and the “activity in screening against alpha glucosidase” value is reported as “showed activity”. Further, in assay [3], the IC50 is 36.8 µM and the “activity in screening against alpha amylase” value is reported as “showed activity”.
For the molecule `Cc1c(C)c2c(c(C)c1O)CCC(C)(C(=O)O)O2` (centres unmarked) [Trolox, 6-hydroxyl-2,5,7,8-tetramethylchroman-2-carboxylic acid], the ORAC in assay [4] is reported as 14.2 ± 04.01 µM TE/g. Moreover, the TEAC in assay [5] turned out to be 205.01 ± 05.03 µM TE/g.
